Assay: xn = mol fraction of the nth substance listed
Conditions: for surface tension liquid-gas: Pendant drop shape; for mass density: 101 kPa, Liquid

Cc1cc(C)cc(C)c1 [1,3,5-trimethylbenzene] + CC(=O)OC(C)C
Conditions	mass density [kg/m3]	surface tension liquid-gas [mN/m]
298.15 K, x2 = 0	861.12	28.05
298.15 K, x2 = 0.0495	861.03	27.68
298.15 K, x2 = 0.1008	861.01	27.28
298.15 K, x2 = 0.1504	860.99	26.92
298.15 K, x2 = 0.199	861.02	26.52
298.15 K, x2 = 0.2514	861.07	26.15
298.15 K, x2 = 0.2996	861.13	25.79
298.15 K, x2 = 0.351	861.25	25.42
298.15 K, x2 = 0.4009	861.36	25.07
298.15 K, x2 = 0.4502	861.53	24.71
298.15 K, x2 = 0.5002	861.71	24.37
298.15 K, x2 = 0.5497	861.96	24.05
298.15 K, x2 = 0.6001	862.22	23.72
298.15 K, x2 = 0.6502	862.53	23.42
298.15 K, x2 = 0.7003	862.88	23.14
298.15 K, x2 = 0.7496	863.29	22.88
298.15 K, x2 = 0.7987	863.73	22.65
298.15 K, x2 = 0.8498	864.28	22.46
298.15 K, x2 = 0.8998	864.85	22.28
298.15 K, x2 = 0.9505	865.52	22.06
308.15 K, x2 = 0	852.94	27.21
308.15 K, x2 = 0.0501	852.69	26.78
308.15 K, x2 = 0.0993	852.53	26.37
308.15 K, x2 = 0.1514	852.38	25.94
308.15 K, x2 = 0.2	852.27	25.55
308.15 K, x2 = 0.2514	852.16	25.16
308.15 K, x2 = 0.3018	852.09	24.8
308.15 K, x2 = 0.353	852.03	24.42
308.15 K, x2 = 0.3991	852.01	24.06
308.15 K, x2 = 0.4503	852	23.69
308.15 K, x2 = 0.4993	852.03	23.35
308.15 K, x2 = 0.5492	852.08	23.01
308.15 K, x2 = 0.6	852.18	22.67
308.15 K, x2 = 0.65	852.3	22.36
308.15 K, x2 = 0.7003	852.47	22.05
308.15 K, x2 = 0.7499	852.68	21.79
308.15 K, x2 = 0.7993	852.92	21.52
308.15 K, x2 = 0.8488	853.23	21.31
308.15 K, x2 = 0.9004	853.61	21.14
308.15 K, x2 = 0.9506	854.03	20.92
313.15 K, x2 = 0	848.82	26.78
313.15 K, x2 = 0.0498	848.53	26.33
313.15 K, x2 = 0.1001	848.29	25.9
313.15 K, x2 = 0.1495	848.08	25.45
313.15 K, x2 = 0.2006	847.88	25.06
313.15 K, x2 = 0.25	847.71	24.67
313.15 K, x2 = 0.3005	847.55	24.28
313.15 K, x2 = 0.3497	847.43	23.9
313.15 K, x2 = 0.3998	847.3	23.54
313.15 K, x2 = 0.4508	847.22	23.18
313.15 K, x2 = 0.4998	847.16	22.82
313.15 K, x2 = 0.5496	847.13	22.49
313.15 K, x2 = 0.6007	847.12	22.13
313.15 K, x2 = 0.6504	847.16	21.83
313.15 K, x2 = 0.7	847.23	21.5
313.15 K, x2 = 0.7495	847.33	21.22
313.15 K, x2 = 0.7993	847.48	20.96
313.15 K, x2 = 0.8507	847.68	20.73
313.15 K, x2 = 0.9008	847.93	20.52
313.15 K, x2 = 0.9504	848.25	20.36

Cc1ccc(C)c(C)c1 [1,2,4-trimethylbenzene] + CC(=O)OC(C)C
Conditions	mass density [kg/m3]	surface tension liquid-gas [mN/m]
298.15 K, x2 = 0	871.71	29.3
298.15 K, x2 = 0.0492	871.44	28.8
298.15 K, x2 = 0.101	871.17	28.25
298.15 K, x2 = 0.1507	870.9	27.69
298.15 K, x2 = 0.1995	870.64	27.13
298.15 K, x2 = 0.251	870.36	26.6
298.15 K, x2 = 0.3006	870.1	26.09
298.15 K, x2 = 0.3513	869.83	25.6
298.15 K, x2 = 0.4008	869.56	25.15
298.15 K, x2 = 0.45	869.3	24.75
298.15 K, x2 = 0.4998	869.03	24.34
298.15 K, x2 = 0.5498	868.76	23.99
298.15 K, x2 = 0.6007	868.49	23.64
298.15 K, x2 = 0.6492	868.23	23.33
298.15 K, x2 = 0.7004	867.95	23.05
298.15 K, x2 = 0.7501	867.68	22.78
298.15 K, x2 = 0.7968	867.42	22.56
298.15 K, x2 = 0.8495	867.12	22.34
298.15 K, x2 = 0.8995	866.84	22.15
298.15 K, x2 = 0.9492	866.55	21.99
308.15 K, x2 = 0	863.68	28.24
308.15 K, x2 = 0.0488	863.27	27.69
308.15 K, x2 = 0.0999	862.84	27.12
308.15 K, x2 = 0.1499	862.42	26.56
308.15 K, x2 = 0.2002	861.99	26
308.15 K, x2 = 0.2504	861.56	25.48
308.15 K, x2 = 0.3001	861.13	24.96
308.15 K, x2 = 0.3519	860.67	24.47
308.15 K, x2 = 0.4	860.24	24.04
308.15 K, x2 = 0.45	859.79	23.62
308.15 K, x2 = 0.4964	859.37	23.24
308.15 K, x2 = 0.5495	858.89	22.86
308.15 K, x2 = 0.6008	858.42	22.51
308.15 K, x2 = 0.6499	857.96	22.21
308.15 K, x2 = 0.7004	857.49	21.88
308.15 K, x2 = 0.7494	857.03	21.67
308.15 K, x2 = 0.7986	856.55	21.43
308.15 K, x2 = 0.85	856.05	21.2
308.15 K, x2 = 0.8997	855.56	21.05
308.15 K, x2 = 0.9498	855.05	20.89
313.15 K, x2 = 0	859.58	27.71
313.15 K, x2 = 0.0494	859.1	27.14
313.15 K, x2 = 0.0983	858.61	26.56
313.15 K, x2 = 0.1504	858.09	26
313.15 K, x2 = 0.1999	857.59	25.44
313.15 K, x2 = 0.2506	857.07	24.93
313.15 K, x2 = 0.3004	856.55	24.41
313.15 K, x2 = 0.3508	856.02	23.92
313.15 K, x2 = 0.3995	855.5	23.51
313.15 K, x2 = 0.4493	854.97	23.08
313.15 K, x2 = 0.4992	854.43	22.65
313.15 K, x2 = 0.5492	853.88	22.29
313.15 K, x2 = 0.6	853.32	21.94
313.15 K, x2 = 0.6493	852.77	21.65
313.15 K, x2 = 0.6995	852.2	21.33
313.15 K, x2 = 0.7501	851.62	21.09
313.15 K, x2 = 0.8	851.04	20.88
313.15 K, x2 = 0.8504	850.44	20.65
313.15 K, x2 = 0.9004	849.84	20.52
313.15 K, x2 = 0.9478	849.26	20.37

Source: the NIST ThermoML archive (doi:10.1021/je800046k)
